For 17 compounds, GI50 and ΔTm results are on record in patent EP4806898A1, “HETEROARYL DERIVATIVE COMPOUND AND USE THEREOF” (Voronoi Inc., priority 2023, dated 2025).

For orientation: GI50 means the concentration giving 50% growth inhibition. The ΔTm is the change in melting temperature against a reference sample.

Test [1] relates to UWB1.289 cells. Kind of test: Cell proliferation inhibitory activity in BRCA1/2-mutant or HRD-positive cells (Cell Titer-Glo). The class given is cell-based. To be noted: UWB1289; UWB1.289 cells, 144 hours after compound treatment, Cell Titer-Glo, 1.5 nM to 10 µM; read-out: GI50 UWB1.289 BRCA1 mut. Put shortly:
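UWB1.289 cells (1,000/well) in 50% MEBM/50% RPMI1640 exposed to […], final 1.5 nM to 10 µM, for 144 h at 37 °C. Viable cells measured by CellTiter-Glo luminescence; GI50 calculated.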

For test [2], the target named is T1, recombinant USP1 protein (Homo sapiens, UniProt O94782, DEL125-138/DEL229-408/DEL608-737).
T1 sequence (O94782 with tags, fused parts or gaps DEL125-138/DEL229-408/DEL608-737): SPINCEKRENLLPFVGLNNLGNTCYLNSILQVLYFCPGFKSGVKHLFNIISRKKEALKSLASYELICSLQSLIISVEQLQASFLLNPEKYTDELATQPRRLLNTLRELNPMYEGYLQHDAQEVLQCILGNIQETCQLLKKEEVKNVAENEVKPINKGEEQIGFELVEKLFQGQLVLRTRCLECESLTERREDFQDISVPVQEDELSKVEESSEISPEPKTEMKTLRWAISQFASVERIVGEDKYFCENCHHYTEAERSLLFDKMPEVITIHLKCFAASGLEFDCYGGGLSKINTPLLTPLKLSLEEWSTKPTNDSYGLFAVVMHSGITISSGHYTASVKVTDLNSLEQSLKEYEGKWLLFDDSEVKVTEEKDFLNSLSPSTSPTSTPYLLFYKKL
Put plainly: Binding affinity to recombinant USP1 protein by differential scanning fluorimetry. The settings on record: compound 100 µM; 0.03 mg/mL USP1 (Δ1-66, Δ125-138, Δ229-408, Δ608-737); Tm with compound minus Tm with DMSO; read-out: ΔTm (°C). Summed up:
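USP1 (Δ1-66, Δ125-138, Δ229-408, Δ608-737) at 0.03 mg/mL with dye in 50 mM Tris-HCl pH 8.0, 150 mM NaCl, 2% glycerol, 1 mM DTT; compounds at 100 µM final. Tm read on real-time PCR instrument; ΔTm = Tm with compound minus Tm with DMSO.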
For orientation: DSF heats the sample and reads unfolding from a dye or from intrinsic fluorescence.

SMILES strings stand for the structures. Where only a bound is given, the exact number is not on record here.

Consider `COc1ncnc(C2CC2)c1-c1ncc2cc(C(=O)N[C@@H](C)C(F)(F)F)n(Cc3ccc(-c4nc(C(F)(F)F)cn4C(C)C)cc3)c2n1` [Example 86, (S)-2-(4-cyclopropyl-6-methoxypyrimidin-5-yl)-7-(4-(1-isopropyl-4-(trifluoromethyl)-1H-imidazol-2-yl)benzyl)-N-(1,1,1-trifluoropropan-2-yl)-7H-pyrrolo[2,3-d]pyrimidine-6-carboxamide], for which the GI50 in test [1] is under 0.1 µM. Besides, the ΔTm at 100 µM in test [2] is over 5 °C.

With `COc1ncnc(C2CC2)c1-c1ncc2cc(C(=O)NCC3CCN(C)CC3)n(Cc3ccc(-c4nc(C(F)(F)F)cn4C(C)C)cc3)c2n1` [Example 87, 2-(4-cyclopropyl-6-methoxypyrimidin-5-yl)-7-(4-(1-isopropyl-4-(trifluoromethyl)-1H-imidazol-2-yl)benzyl)-N-((1-methylpiperidin-4-yl)methyl)-7H-pyrrolo[2,3-d]pyrimidine-6-carboxamide], the GI50 in test [1] lay within 0.1 to 0.5 µM. Further, the ΔTm at 100 µM in test [2] was over 5 °C.

On to `COc1ncnc(C2CC2)c1-c1ncc2cc(C(=O)NC34CC(F)(C3)C4)n(Cc3ccc(-c4nc(C(F)(F)F)cn4C(C)C)cc3)c2n1` [Example 89, 2-(4-cyclopropyl-6-methoxypyrimidin-5-yl)-N-(3-fluorobicyclo[1.1.1]pentan-1-yl)-7-(4-(1-isopropyl-4-(trifluoromethyl)-1H-imidazol-2-yl)benzyl)-7H-pyrrolo[2,3-d]pyrimidine-6-carboxamide], for which the GI50 in test [1] is 0.1 to 0.5 µM. The ΔTm at 100 µM in test [2] was over 5 °C.

On to `COc1ncnc(C2CC2)c1-c1ncc2cc(C(=O)NCCC3CC(F)(F)C3)n(Cc3ccc(-c4nc(C(F)(F)F)cn4C(C)C)cc3)c2n1` [Example 90, 2-(4-cyclopropyl-6-methoxypyrimidin-5-yl)-N-(2-(3,3-difluorocyclobutyl)ethyl)-7-(4-(1-isopropyl-4-(trifluoromethyl)-1H-imidazol-2-yl)benzyl)-7H-pyrrolo[2,3-d]pyrimidine-6-carboxamide], for which the GI50 in test [1] is under 0.1 µM. Further, the ΔTm at 100 µM in test [2] was over 5 °C.

As to `COc1ncnc(C2CC2)c1-c1ncc2cc(C(=O)N3CCC4(CC3)CNCCO4)n(Cc3ccc(-c4nc(C(F)(F)F)cn4C(C)C)cc3)c2n1` [Example 94, (2-(4-cyclopropyl-6-methoxypyrimid in-5-yl)-7-(4-(1-isopropyl-4-(trifluoromethyl)-1H-imidazol-2-yl)benzyl)-7H-pyrrolo[2,3-d]pyrimidin-6-yl)(1-oxa-4,9-diazaspiro[5.5]undecan-9-yl)methanone], in test [1], the GI50 lay in the range of 0.1 to 0.5 µM. Also, the ΔTm at 100 µM in test [2] is over 5 °C.

Regarding `CNC(=O)c1cc2cnc(-c3c(OC(F)F)ncnc3C3CC3)nc2n1Cc1ccc(-c2nc(C(F)(F)F)cn2C(C)C)cc1` [Example 95, 2-(4-cyclopropyl-6-(difluoromethoxy)pyrimidin-5-yl)-7-(4-(1-isopropyl-4-(trifluoromethyl)-1H-imidazol-2-yl)benzyl)-N-methyl-7H-pyrrolo[2,3-d]pyrimidine-6-carboxamide], in test [1], the GI50 lay in the range of 0.1 to 0.5 µM. The ΔTm at 100 µM in test [2] was over 5 °C.

With `CN[C@H]1CCN(C(=O)c2cc3cnc(-c4c(OC)ncnc4C4CC4)nc3n2Cc2ccc(-c3nc(C(F)(F)F)cn3C(C)C)cc2)C1` [Example 97, (S)-(2-(4-cyclopropyl-6-methoxypyrimidin-5-yl)-7-(4-(1-isopropyl-4-(trifluoromethyl)-1H-imidazol-2-yl)benzyl)-7H-pyrrolo[2,3-d]pyrimidin-6-yl) (3-(methylamino)pyrrolidin-1-yl)methanone], the GI50 in test [1] was 0.1 to 0.5 µM. The ΔTm at 100 µM in test [2] is over 5 °C.

On to `COc1ncnc(C2CC2)c1-c1ncc2cc(C(=O)N3CC(N)C3)n(Cc3ccc(-c4nc(C(F)(F)F)cn4C(C)C)cc3)c2n1` [Example 99, (3-aminoazetidin-1-yl)(2-(4-cyclopropyl-6-methoxypyrimidin-5-yl)-7-(4-(1-isopropyl-4-(trifluoromethyl)-1H-imidazol-2-yl)benzyl)-7H-pyrrolo[2,3-d]pyrimidin-6-yl)methanone], for which, in test [1], the GI50 was under 0.1 µM. Besides, the ΔTm at 100 µM in test [2] is over 5 °C.

As for `COc1ncnc(C2CC2)c1-c1ncc2cc(C(=O)NCCN)n(Cc3ccc(-c4nc(C(F)(F)F)cn4C(C)C)cc3)c2n1` [Example 100, N-(2-aminoethyl)-2-(4-cyclopropyl-6-methoxypyrimidin-5-yl)-7-(4-(1-isopropyl-4-(trifluoromethyl)-1H-imidazol-2-yl)benzyl)-7H-pyrrolo[2,3-d]pyrimidine-6-carboxamide], in test [1], the GI50 fell in the range of 0.1 to 0.5 µM. The ΔTm at 100 µM in test [2] is over 5 °C.

Consider `COc1ncnc(C2CC2)c1-c1ncc2cc(C(=O)N3CC(F)C3)n(Cc3ccc(-c4nc(C(F)(F)F)cn4C(C)C)cc3)c2n1` [Example 101, (2-(4-cyclopropyl-6-methoxypyrimid in-5-yl)-7-(4-(1-isopropyl-4-(trifluoromethyl)-1H-imidazol-2-yl)benzyl)-7H-pyrrolo[2,3-d]pyrimidin-6-yl) (3-fluoroazetidin-1-yl)methanone], for which the GI50 in test [1] was in the range of 0.1 to 0.5 µM. For the same compound, the ΔTm at 100 µM in test [2] was over 5 °C.

`COc1ncnc(C2CC2)c1-c1ncc2cc(C(=O)NCCN3CCN(C)CC3)n(Cc3ccc(-c4nc(C(F)(F)F)cn4C(C)C)cc3)c2n1` [Example 102, 2-(4-cyclopropyl-6-methoxypyrimidin-5-yl)-7-(4-(1-isopropyl-4-(trifluoromethyl)-1H-imidazol-2-yl)benzyl)-N-(2-(4-methylpiperazin-1-yl)ethyl)-7H-pyrrolo[2,3-d]pyrimidine-6-carboxamide]: the GI50 in test [1] was under 0.1 µM. The ΔTm at 100 µM in test [2] is over 5 °C.

Turning to `COc1ncnc(C2CC2)c1-c1ncc2cc(C(=O)NC3(C)COC3)n(Cc3ccc(-c4nc(C(F)(F)F)cn4C(C)C)cc3)c2n1` [Example 104, 2-(4-cyclopropyl-6-methoxypyrimidin-5-yl)-7-(4-(1-isopropyl-4-(trifluoromethyl)-1H-imidazol-2-yl)benzyl)-N-(3-methyloxetan-3-yl)-7H-pyrrolo[2,3-d]pyrimidine-6-carboxamide], in test [1], the GI50 was under 0.1 µM. Besides, the ΔTm at 100 µM in test [2] is over 5 °C.

Take `COc1ncnc(C2CC2)c1-c1ncc2cc(C(=O)N3CC[C@@H](O)C3)n(Cc3ccc(-c4nc(C(F)(F)F)cn4C(C)C)cc3)c2n1` [Example 105, (R) - (2-(4-cyclopropyl-6-methoxypyrimid in-5-yl)-7-(4-(1-isopropyl-4-(trifluoromethyl)-1H-imidazol-2-yl)benzyl)-7H-pyrrolo[2,3-d]pyrimidin-6-yl) (3-hydroxypyrrolidin-1-yl)methanone]: the concentration for 50% growth inhibition (GI50) in test [1] lay within 0.1 to 0.5 µM. Besides, the ΔTm at 100 µM in test [2] is over 5 °C.

With `COCCNC(=O)c1cc2cnc(-c3c(OC)ncnc3C3CC3)nc2n1Cc1ccc(-c2nc(C(F)(F)F)cn2C(C)C)cc1` [Example 106, 2-(4-cyclopropyl-6-methoxypyrimidin-5-yl)-7-(4-(1-isopropyl-4-(trifluoromethyl)-1H-imidazol-2-yl)benzyl)-N-(2-methoxyethyl)-7H-pyrrolo[2,3-d]pyrimidine-6-carboxamide], the GI50 in test [1] was under 0.1 µM. Further, in test [2], the ΔTm at 100 µM is over 5 °C.

Regarding `COc1ncnc(C2CC2)c1-c1ncc2cc(C(=O)NC[C@@H]3CCCN3C)n(Cc3ccc(-c4nc(C(F)(F)F)cn4C(C)C)cc3)c2n1` [Example 108, (S)-2-(4-cyclopropyl-6-methoxypyrimidin-5-yl)-7-(4-(1-isopropyl-4-(trifluoromethyl)-1H-imidazol-2-yl)benzyl)-N-((1-methylpyrrolidin-2-yl)methyl)-7H-pyrrolo[2,3-d]pyrimidine-6-carboxamide], the GI50 in test [1] is under 0.1 µM. Moreover, in test [2], the ΔTm at 100 µM is over 5 °C.

Turning to `CN[C@@H]1CCN(C(=O)c2cc3cnc(-c4c(OC)ncnc4C4CC4)nc3n2Cc2ccc(-c3nc(C(F)(F)F)cn3C(C)C)cc2)C1` [Example 109, (R) - (2-(4-cyclopropyl-6-methoxypyrimid in-5-yl)-7-(4-(1-isopropyl-4-(trifluoromethyl)-1H-imidazol-2-yl)benzyl)-7H-pyrrolo[2,3-d]pyrimidin-6-yl) (3-(methylamino)pyrrolidin-1-yl)methanone], the GI50 in test [1] is under 0.1 µM. Further, in test [2], the ΔTm at 100 µM was over 5 °C.

As to `COc1ncnc(C2CC2)c1-c1ncc2cc(C(=O)NC3CN(C)C3)n(Cc3ccc(-c4nc(C(F)(F)F)cn4C(C)C)cc3)c2n1` [Example 110, 2-(4-cyclopropyl-6-methoxypyrimidin-5-yl)-7-(4-(1-isopropyl-4-(trifluoromethyl)-1H-imidazol-2-yl)benzyl)-N-(1-methylazetidin-3-yl)-7H-pyrrolo[2,3-d]pyrimidine-6-carboxamide], in test [1], the GI50 fell in the range of 0.1 to 0.5 µM. Further, in test [2], the ΔTm at 100 µM is over 5 °C.
